Assay [1] concerns LNCaP cells. The assay can be described thus: XTT cell proliferation (cell viability) assay in LNCaP cells. The following applies: Homo sapiens, mean±S.E.M., read-out: IC50 (anti-proliferative activity, XTT). The assay is classed as cell-based. As for the experimental part:
(§1) Human metastatic prostate cancer cells, LNCaP, were obtained from ATCC (Manassas, Va., USA). Cells were grown in RPMI-1640 medium supplemented with 2mM glutamine, 10% FBS, 100 U/mL penicillin, and 100 μg/mL streptomycin. LNCaP cells were maintained in a humidified atmosphere of 5% CO2 at 37° C. in T-75 flasks and were subcultured when confluent. Experiments were conducted using cells with passage numbers ranging from 5-20.
The anti-proliferative effect of carvacrol was assessed in human metastatic prostate cancer cells, LNCaP, using the XTT cell proliferation assay. This assay is a colorimetric assay that detects cellular metabolic activities. In this assay, the second generation tetrazolium dye XTT (2,3-bis (2-methoxy-4-nitiro-5-sulfophenyl)-5-[(phenylamino)-carbonyl]-2H tetrazolium hydroxide), is reduced to a soluble, brightly orange colored formazan derivative. To improve the sensitivity of XTT assay, PMS (N-methyl dibenzopyrazine methyl sulfate), an intermediate electron carrier is used. This color change is accomplished by breaking apart the positively charged quaternary tetrazole ring. Mitochondrial oxidoreductases present in viable cells are thought to contribute substantially to the XTT response with their reductants being transferred to the plasma membrane.
LNCaP cells at the density of 10,000 cells/well were seeded into flat-bottom, 96-well microtiter plates (100 μL/well) and allowed to attach and grow for 24 hours, the cells were then treated with 0.1 μM, 1 μM, 10 μM, 100 μM, 1000 μM, and 3000 μM of carvacrol for 24, 48, and 96 hours. […] After incubation, an orange colored formazan product was formed and the absorbance was read at 475 nm using BioTek microplate reader. […] Cell viability of the drug-treated cells was calculated as a fraction of solvent control and the anti-proliferative activity of carvacrol was expressed in terms in IC50 valuesIC50 values of carvacrol were calculated using GraphPad Prism 4 (GraphPad Software Inc., Calif., USA), and are expressed as the means of ±S.E.M> of n≧4 experiments, with triplicate determinations in each experiment. […]
(In general: Tetrazolium dyes change colour on reduction, which living cells bring about.)

In assay [2] the test system is LNCaP cells. The assay can be described thus: DNA fragmentation assay (Apoptotic DNA-Ladder Kit) in LNCaP cells. The assay is classed as cell-based, Human. The following applies: 10 μM and 1000 μM, 48 hours. As to the method:
as §1
During apoptosis, pro-apoptotic proteins such as apoptosis-inducing factor (AIF), endonuclease G, and caspase-activated DNase (CAD) are released from the mitochondria, which occur after the cell has committed to die. AIF, after translocation to the nucleus, causes DNA fragmentation (˜50-300 kb pieces) and peripheral nuclear chromatin condensation which is referred to as “stage 1” condensation. Endonuclease G also cleaves nuclear chromatin to produce oligonucleosomal DNA fragments following its translocation to the nucleus. Both, AIF and endonuclease G function in caspase-independent manner. CAD subsequently released from mitochondria, after getting cleaved by activated caspase-3, is known to translocate into the nucleus leading to oligonucleosomal cleavage of DNA into 180 by fragments and a more pronounced chromatin condensation referred to as “stage 11” condensation.
This cleaved DNA is easily observed as a “ladder” upon analysis by gel electrophoresis. […]

Assay [3] deals with PARP cleavage in LNCaP cells. The assay can be described thus: Western blot analysis of PARP cleavage in LNCaP cells. As to conditions: 48 h treatment. Type of assay: cell-based, Human. As for the experimental part: as §1
Western blotting is a widely used analytical technique for detection of specific proteins separated from one another, according to their size, by gel electrophoresis. Application of an electric current induces proteins on the gel to move on to the membrane (nitrocellulose or PVDF) placed next to it. Proteins on the gel get transferred on to the membrane which is subsequently stained with the antibody. Once detected, the target protein will be visualized as a band on a blotting membrane, X-ray film, or an imaging system. […]
After maintaining constant agitation at 4° C. for 30 minutes, lysates were collected in microcentrifuge tubes and centrifuged at 12,000 rpm at 4° C. for 20 minutes. […] Protein concentration was determined using the Pierce® BCA protein assay kit. […] Western blot images are representative of at least 3 independent experiments, while quantification data represent mean±S.E.M. of n>3 experiments.

Where two headings read alike, the source gives them in different places.

By IC50 is commonly meant the concentration that inhibits the measured activity by half. Turning to `Cc1ccc(C(C)C)cc1O` [Carvacrol], the IC50 in the assay on LNCaP cells [1] (24 hours treatment) is 1670 ± 179 µM; with LNCaP cells [1] (48 hours treatment), 269 ± 58 µM; with LNCaP cells [1] (96 hours treatment), 13.7 ± 4.42 µM. Besides, the “fragmentation of DNA” value with LNCaP cells [2] is reported as “Fragmentation of DNA was observed”. Further, the “cleavage of PARP (Western blot)” value in assay [3] is reported as “demonstrated cleavage of PARP”.
